# Experimental data published in ChEMBL document CHEMBL5465560, “Selectivity Literature for EUbOPEN Chemogenomic Library” (2024).
# Key:
# [1] = biological target: Tyrosine-protein kinase Fes/Fps (Homo sapiens) (UniProt P07332); experiment: Selectivity interaction (Ambit KINOMEscan and KiNATiv profiling in Jurkat cells) EUB0000090b FES; type: cell-based; settings: at 1 µM
# [2] = biological target: Rho-associated protein kinase 1 (Homo sapiens) (UniProt Q13464); experiment: Selectivity interaction (Kinase panel (literature)) EUB0001199aCl ROCK1; settings: at 1 µM
# [3] = biological target: Cyclin-dependent kinase 5 (Homo sapiens, UniProt Q00535); experiment: Selectivity interaction (KinomeScan (DiscoverX)) EUB0000618a CDK5; settings: at 10 µM
# Chain of Cyclin-dependent kinase 5 (Q00535 whole entry, looked up): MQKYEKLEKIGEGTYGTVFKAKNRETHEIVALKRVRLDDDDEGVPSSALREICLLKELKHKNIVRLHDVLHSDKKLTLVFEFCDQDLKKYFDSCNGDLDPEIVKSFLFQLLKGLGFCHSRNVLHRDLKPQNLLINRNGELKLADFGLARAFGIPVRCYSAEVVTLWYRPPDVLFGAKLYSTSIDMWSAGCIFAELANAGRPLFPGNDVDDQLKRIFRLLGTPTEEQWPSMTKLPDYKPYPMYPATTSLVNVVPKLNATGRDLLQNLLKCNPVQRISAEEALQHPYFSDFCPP
# [4] = biological target: T1, Serine/threonine-protein kinase BRSK1 (Homo sapiens) (UniProt Q8TDC3); experiment: Selectivity interaction (KinomeScan (DiscoverX)) EUB0000607a BRSK1; settings: at 10 µM
# T1 sequence (whole entry): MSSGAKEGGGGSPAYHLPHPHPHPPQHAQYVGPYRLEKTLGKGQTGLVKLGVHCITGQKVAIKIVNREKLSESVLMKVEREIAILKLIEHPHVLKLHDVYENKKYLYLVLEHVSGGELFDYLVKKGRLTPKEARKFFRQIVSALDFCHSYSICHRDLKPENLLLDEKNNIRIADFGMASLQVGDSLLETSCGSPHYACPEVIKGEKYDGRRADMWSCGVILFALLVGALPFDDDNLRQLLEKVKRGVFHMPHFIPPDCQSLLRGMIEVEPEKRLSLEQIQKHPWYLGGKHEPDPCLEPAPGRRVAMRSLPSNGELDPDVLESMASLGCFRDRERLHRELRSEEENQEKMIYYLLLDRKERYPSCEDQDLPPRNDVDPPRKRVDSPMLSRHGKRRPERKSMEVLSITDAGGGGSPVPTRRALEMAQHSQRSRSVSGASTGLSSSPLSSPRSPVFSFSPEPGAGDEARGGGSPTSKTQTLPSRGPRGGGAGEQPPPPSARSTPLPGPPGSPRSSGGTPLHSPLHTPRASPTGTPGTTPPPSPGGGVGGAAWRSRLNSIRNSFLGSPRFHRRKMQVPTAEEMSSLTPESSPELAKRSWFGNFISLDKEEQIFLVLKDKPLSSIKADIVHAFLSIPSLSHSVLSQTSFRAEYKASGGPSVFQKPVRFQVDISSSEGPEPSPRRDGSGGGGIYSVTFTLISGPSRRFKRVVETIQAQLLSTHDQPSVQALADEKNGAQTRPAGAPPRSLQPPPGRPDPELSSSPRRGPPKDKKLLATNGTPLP
# [5] = biological target: Tyrosine-protein kinase JAK1 (Homo sapiens, UniProt P23458); experiment: Selectivity interaction (Kinase panel (KiNativ target engagement assay in Jurkat cells)) EUB0001635a JAK1; type: cell-based; settings: Selectivity number of off-targets 0.0, Selectivity number of targets 233.0, Source Knowledge https://www.sciencedirect.com/science/article/pii/S2451945619300674?via%3Dihub, at 1 µM
# Chain of Tyrosine-protein kinase JAK1 (P23458 whole entry): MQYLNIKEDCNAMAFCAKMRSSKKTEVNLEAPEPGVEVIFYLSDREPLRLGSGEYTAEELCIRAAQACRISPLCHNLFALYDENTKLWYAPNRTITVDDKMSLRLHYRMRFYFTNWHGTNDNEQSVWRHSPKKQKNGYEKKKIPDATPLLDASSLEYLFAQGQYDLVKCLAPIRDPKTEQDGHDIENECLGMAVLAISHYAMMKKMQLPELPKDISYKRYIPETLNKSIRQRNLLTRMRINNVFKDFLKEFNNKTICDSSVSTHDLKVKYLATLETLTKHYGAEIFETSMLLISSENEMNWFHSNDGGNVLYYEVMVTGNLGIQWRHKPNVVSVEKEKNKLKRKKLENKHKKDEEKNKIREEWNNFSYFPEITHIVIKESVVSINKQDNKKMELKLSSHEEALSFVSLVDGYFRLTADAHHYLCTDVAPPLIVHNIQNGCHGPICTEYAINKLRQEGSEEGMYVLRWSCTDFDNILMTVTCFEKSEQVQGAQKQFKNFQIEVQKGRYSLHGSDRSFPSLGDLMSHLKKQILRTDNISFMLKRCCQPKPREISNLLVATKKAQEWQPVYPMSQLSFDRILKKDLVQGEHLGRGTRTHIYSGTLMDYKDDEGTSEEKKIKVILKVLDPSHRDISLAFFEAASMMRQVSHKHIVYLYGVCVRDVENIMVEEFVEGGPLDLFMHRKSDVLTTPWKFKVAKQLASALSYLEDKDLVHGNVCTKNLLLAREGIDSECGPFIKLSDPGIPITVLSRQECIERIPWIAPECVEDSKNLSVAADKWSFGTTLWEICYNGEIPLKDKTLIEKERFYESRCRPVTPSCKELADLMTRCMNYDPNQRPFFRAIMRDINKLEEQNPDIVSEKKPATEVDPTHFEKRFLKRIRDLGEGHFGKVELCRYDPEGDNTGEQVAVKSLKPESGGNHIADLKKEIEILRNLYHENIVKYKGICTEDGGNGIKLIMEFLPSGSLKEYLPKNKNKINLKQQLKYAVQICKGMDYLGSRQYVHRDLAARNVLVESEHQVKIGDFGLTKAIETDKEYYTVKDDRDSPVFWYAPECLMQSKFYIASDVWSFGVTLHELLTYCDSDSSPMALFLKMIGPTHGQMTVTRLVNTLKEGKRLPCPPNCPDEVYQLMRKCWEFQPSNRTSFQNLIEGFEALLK
# [6] = tested on: Hepatocyte growth factor receptor (Homo sapiens), P08581 [M1250T]; settings: at 10 µM
# Chain of Hepatocyte growth factor receptor (Homo sapiens), P08581 [M1250T] (P08581 whole entry M1250T): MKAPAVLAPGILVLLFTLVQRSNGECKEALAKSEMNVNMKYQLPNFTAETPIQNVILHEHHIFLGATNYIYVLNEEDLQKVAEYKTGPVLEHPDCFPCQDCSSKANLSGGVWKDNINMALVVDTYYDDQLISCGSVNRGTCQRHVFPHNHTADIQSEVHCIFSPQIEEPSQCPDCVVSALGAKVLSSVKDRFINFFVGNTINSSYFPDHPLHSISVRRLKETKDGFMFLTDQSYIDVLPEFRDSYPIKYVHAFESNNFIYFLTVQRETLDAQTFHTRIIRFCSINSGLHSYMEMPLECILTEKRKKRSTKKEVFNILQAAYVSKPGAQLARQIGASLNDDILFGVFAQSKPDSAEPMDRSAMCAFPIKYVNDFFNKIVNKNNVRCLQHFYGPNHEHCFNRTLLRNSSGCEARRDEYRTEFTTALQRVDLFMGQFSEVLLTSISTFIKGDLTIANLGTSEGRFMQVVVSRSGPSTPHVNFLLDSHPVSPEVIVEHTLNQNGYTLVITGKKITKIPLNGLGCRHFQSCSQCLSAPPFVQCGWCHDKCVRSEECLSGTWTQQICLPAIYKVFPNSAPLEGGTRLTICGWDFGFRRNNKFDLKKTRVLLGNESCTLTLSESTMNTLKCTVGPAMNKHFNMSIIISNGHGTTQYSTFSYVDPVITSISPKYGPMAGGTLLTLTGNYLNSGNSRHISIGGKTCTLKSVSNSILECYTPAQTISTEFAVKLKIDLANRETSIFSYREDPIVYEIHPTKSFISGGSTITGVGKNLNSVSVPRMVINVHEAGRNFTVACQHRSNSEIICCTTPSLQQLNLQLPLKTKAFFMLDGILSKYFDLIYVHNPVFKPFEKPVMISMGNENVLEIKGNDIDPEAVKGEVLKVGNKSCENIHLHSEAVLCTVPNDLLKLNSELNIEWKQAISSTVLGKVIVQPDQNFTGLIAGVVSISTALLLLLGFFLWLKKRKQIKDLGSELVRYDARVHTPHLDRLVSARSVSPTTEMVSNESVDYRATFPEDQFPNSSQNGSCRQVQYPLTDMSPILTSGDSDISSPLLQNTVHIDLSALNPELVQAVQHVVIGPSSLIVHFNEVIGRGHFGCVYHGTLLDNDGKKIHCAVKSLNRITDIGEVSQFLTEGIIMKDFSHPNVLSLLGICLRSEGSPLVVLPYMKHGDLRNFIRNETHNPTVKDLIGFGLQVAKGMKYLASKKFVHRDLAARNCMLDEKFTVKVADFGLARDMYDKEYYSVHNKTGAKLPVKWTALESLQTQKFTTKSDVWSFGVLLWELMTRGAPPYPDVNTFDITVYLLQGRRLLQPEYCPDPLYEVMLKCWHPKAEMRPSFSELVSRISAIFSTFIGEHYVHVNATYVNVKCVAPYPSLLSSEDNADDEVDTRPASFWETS
# [7] = biological target: T2, Scaffold protein ILK (Homo sapiens) (UniProt Q13418); experiment: Selectivity interaction (ActivX KiNativ screen (kinase selectivity in THP-1 cell lysates)) EUB0000639a ILK; type: subcellular; settings: lysate, at 0.01 µM
# T2 sequence (whole entry): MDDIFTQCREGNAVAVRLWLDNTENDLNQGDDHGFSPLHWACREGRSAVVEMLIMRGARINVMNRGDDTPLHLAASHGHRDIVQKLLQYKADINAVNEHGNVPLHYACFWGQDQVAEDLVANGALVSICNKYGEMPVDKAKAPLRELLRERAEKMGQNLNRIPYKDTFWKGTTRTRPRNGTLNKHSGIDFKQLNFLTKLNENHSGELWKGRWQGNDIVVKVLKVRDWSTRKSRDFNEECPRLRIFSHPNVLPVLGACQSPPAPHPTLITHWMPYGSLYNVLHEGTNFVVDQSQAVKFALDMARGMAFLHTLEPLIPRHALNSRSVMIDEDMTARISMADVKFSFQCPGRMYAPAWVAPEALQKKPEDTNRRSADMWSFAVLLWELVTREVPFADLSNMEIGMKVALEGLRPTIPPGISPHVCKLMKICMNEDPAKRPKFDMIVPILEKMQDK
# [8] = biological target: Receptor-interacting serine/threonine-protein kinase 3 (Homo sapiens) (UniProt Q9Y572); experiment: Selectivity interaction (ActivX KiNativ screen (kinase selectivity in THP-1 cell lysates)) EUB0000639a RIPK3; type: subcellular; settings: lysate
# Chain of Receptor-interacting serine/threonine-protein kinase 3 (Homo sapiens) (Q9Y572 whole entry, looked up): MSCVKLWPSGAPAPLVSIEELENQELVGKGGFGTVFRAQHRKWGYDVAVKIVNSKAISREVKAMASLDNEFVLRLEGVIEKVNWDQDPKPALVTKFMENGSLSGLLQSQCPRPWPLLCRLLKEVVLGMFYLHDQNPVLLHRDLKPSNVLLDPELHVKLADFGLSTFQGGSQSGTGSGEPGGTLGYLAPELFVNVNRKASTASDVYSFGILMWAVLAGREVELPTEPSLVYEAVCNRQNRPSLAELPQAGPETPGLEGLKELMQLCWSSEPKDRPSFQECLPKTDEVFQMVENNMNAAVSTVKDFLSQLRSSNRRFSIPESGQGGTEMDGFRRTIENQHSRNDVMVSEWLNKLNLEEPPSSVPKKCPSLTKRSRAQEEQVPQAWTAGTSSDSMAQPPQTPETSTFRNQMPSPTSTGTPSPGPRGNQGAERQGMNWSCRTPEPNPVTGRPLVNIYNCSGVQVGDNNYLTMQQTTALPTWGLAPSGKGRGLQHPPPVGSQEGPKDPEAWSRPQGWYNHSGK
# [9] = biological target: T3, Bone morphogenetic protein receptor type-2 (Homo sapiens) (UniProt Q13873); experiment: Selectivity interaction (LanthaScreen Eu Kinase Binding Assay) EUB0001632a BMPR2; settings: at 10 µM
# T3 sequence (whole entry): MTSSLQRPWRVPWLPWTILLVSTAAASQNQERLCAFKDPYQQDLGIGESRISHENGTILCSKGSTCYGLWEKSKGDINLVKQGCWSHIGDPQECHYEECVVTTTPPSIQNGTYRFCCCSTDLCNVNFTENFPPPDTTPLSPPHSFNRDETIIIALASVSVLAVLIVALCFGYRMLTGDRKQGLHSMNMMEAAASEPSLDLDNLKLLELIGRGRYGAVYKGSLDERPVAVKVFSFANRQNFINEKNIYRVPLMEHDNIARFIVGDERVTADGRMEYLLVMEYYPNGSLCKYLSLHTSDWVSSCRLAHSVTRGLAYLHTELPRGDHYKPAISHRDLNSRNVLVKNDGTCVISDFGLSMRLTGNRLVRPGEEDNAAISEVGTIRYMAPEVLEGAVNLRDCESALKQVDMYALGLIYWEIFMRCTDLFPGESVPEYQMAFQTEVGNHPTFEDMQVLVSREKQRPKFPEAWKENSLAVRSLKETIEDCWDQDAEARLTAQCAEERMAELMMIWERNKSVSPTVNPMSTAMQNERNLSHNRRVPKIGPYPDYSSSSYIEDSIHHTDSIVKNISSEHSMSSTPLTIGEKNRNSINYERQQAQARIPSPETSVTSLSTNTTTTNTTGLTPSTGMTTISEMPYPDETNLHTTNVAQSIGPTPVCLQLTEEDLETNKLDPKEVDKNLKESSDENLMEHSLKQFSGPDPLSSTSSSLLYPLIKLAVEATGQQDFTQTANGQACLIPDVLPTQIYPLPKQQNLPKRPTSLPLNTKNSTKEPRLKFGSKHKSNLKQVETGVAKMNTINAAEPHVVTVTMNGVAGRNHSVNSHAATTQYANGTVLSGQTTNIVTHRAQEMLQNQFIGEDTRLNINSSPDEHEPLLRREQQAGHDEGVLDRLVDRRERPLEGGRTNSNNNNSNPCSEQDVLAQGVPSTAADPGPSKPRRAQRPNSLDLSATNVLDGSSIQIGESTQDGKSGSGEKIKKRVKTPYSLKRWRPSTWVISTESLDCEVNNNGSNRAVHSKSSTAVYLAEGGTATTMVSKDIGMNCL
# [10] = biological target: Dual specificity mitogen-activated protein kinase kinase 1 (Homo sapiens, UniProt Q02750); experiment: Selectivity interaction (KinomeScan (DiscoverX)) EUB0000695a MAP2K1; settings: at 100 nM
# Chain of Dual specificity mitogen-activated protein kinase kinase 1 (Q02750 whole entry): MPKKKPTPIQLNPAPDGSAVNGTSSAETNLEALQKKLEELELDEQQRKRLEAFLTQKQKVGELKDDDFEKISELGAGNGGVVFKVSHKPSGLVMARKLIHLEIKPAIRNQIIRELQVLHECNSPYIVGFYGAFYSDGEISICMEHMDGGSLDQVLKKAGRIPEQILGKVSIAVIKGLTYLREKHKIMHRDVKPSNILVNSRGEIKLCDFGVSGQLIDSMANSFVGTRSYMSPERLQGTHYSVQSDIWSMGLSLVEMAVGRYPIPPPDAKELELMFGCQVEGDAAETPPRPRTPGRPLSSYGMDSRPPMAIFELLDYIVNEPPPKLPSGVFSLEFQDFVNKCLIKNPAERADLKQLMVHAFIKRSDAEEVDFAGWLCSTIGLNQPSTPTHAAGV
# Chain of Tyrosine-protein kinase Fes/Fps (Homo sapiens) (P07332 whole entry): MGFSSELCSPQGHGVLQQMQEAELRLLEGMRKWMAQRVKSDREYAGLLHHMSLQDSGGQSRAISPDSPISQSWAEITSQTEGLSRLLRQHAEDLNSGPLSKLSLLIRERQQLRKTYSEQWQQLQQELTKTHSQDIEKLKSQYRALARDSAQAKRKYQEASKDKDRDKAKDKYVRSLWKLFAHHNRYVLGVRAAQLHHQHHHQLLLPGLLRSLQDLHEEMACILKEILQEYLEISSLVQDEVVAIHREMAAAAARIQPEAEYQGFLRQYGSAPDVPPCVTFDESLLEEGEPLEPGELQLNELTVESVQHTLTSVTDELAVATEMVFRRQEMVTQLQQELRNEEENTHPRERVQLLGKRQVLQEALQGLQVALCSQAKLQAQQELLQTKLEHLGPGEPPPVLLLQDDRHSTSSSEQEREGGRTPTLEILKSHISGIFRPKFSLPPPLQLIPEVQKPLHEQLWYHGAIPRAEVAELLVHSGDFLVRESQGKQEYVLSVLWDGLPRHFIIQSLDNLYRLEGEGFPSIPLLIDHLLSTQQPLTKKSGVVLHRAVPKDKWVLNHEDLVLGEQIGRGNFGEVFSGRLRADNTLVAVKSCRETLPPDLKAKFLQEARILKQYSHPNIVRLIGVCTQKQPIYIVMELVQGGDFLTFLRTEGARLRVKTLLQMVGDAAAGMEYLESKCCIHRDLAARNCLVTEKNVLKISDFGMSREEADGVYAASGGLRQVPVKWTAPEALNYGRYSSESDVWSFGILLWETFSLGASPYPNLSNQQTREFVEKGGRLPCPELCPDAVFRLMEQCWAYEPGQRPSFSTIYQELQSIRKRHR
smiles,measurement,setting,value
CN(C)C/C=C/C(=O)Nc1ccc(C(=O)N2CCCC(Nc3ncc(Cl)c(-c4c[nH]c5ccccc45)n3)C2)cc1 (centres undefined),% of control,[1],68%
CN1Cc2nccc(-c3cn(C)nc3-c3ccc(F)cc3)c2C1=O,% of inhibition,[2],-3%
O[C@H]1CC[C@H](Nc2ncc3nc(Nc4c(F)cc(F)cc4F)n([C@H]4CCOC4)c3n2)CC1,% of control,[3],100%
CNC(=O)Nc1ccc(-c2nc(N3CC4CCC(C3)O4)c3cnn(C4CCC5(CC4)OCCO5)c3n2)cc1,% of control,[4],100%
C=CC(=O)Nc1ccc(C(=O)Nc2[nH]nc3c2CN(C(=O)N[C@H](CN(C)C)c2ccccc2)C3(C)C)cc1,% of engagement,[5],11.1%
Cc1cc([C@@H](C)Nc2ccccc2C(=O)O)c2nc(N3CCOCC3)cc(=O)n2c1 [AZD-6482],% of control,[6],87%
CC[C@@H]1[C@H](F)C(=O)N[C@@H]1COc1nccc2cc(C(N)=O)c(OC)cc12 [ZIMLOVISERTIB],% of inhibition,[7],3.1%
same,% of inhibition,[8]; at 0.01 µM,3%
same,% of inhibition,[8]; at 0.04 µM,-0.8%
same,% of inhibition,[8]; at 0.2 µM,-4.3%
same,% of inhibition,[8]; at 1 µM,8.9%
same,% of inhibition,[8]; at 5 µM,-8.6%
Cn1cc(-n2cnc3c(NCc4nc5cc(Cl)c(Cl)cc5[nH]4)nc(N4CCOCC4)nc32)cn1,% of inhibition,[9],-6.55%
Cc1cc(F)c(C(=O)Nc2cccc(-c3nncn3C(C)C)n2)cc1-n1cnc(C2CC2)c1,% of control,[10],100%
